Results as given in PMC10600239, “Selective MCL-1 inhibitor ABBV-467 is efficacious in tumor models but is associated with cardiac troponin increases in patients” (Communications Medicine, 2023).
Several values for one entry are separate records, joined by “and”; a condition that tells them apart may be missing. Equal entries are not always repeated.

Tested on: AMO-1 xenografts
Test: AMO-1 xenograft efficacy (tumor volume, body weight); as to Mortality Observation Day 34: key: EUTV: Euthanized: tumor volume; as to Mortality Observation Day 36: key: EUTV: Euthanized: tumor volume; as to Mortality Observation Day 68, individual animal: key: EUTV: Euthanized: tumor volume
Assay type: in vivo, mouse
Protocol: All animal studies were conducted in accordance with the guidelines approved by the Institutional Animal Care and Use Committees of AbbVie. The research protocol was approved by In Vivo Pharmacology at AbbVie prior to study initiation but was not publicly registered or disclosed. Female C.B-17 SCID-beige mice (AMO-1, OPM-2, NCI-H929, and OCI-AML2 xenografts) and female NSG mice (MV4-11-Red.Fluc systemic) were purchased from Charles River Laboratories (Wilmington, MA). Animals were housed in a light cycle-controlled room with HEPA filtration at 22 °C. Animals had nesting and climbing cage topper as the primary environmental enrichment. Animals were inoculated subcutaneously in the right flank with 5 × 10^6 (AMO-1, OPM-2, NCI-H929, and OCI-AML2) or intravenous (IV) with 5 × 10^6 (MV4-11-Red.Fluc). The inoculation volume (0.2 mL) comprised a 50:50 mixture of cells in growth media and Matrigel (BD Biosciences) for subcutaneous injections and 100% phosphate-buffered saline for IV administration. All cell lines used in this publication were authenticated using IDEXX for STR profiling as well as their IMPACT and human IMPACT panels for pathogen screening. Electronic calipers were used to measure the length and width of each tumor 2 to 3 times per week. Tumor volume was estimated by applying the following equation: volume = length × width^2/2. All groups remained blinded during measurements and dosing; only veterinary staff were aware of group identity. When tumors reached approximately 200 mm^3, mice were randomized by match and distributed into treatment and control groups. All xenograft trials were conducted using 5 to 10 mice per group, and all mice were ear tagged and monitored individually throughout the studies. […] Tumor burden in the systemic MV4-11-Red.Fluc experiment was measured using an IVIS® spectrum from PerkinElmer by taking the total photon flux of the entire dorsal side of an individual mouse. […] A background control mouse that was tumor naive but received D-Luciferin was placed in the upper left corner of each image. The total flux from this animal was subtracted from the total flux of each animal present in the image.
For in vivo studies, maximal tumor growth inhibition (TGI) was calculated as the greatest treatment response using the following equation: Maximal TGI = (1 − mean tumor volume of the treated group/mean tumor volume of the vehicle control group) × 100. The tumor growth delay (TGD) percentage was determined as the percentage increase of the median time period for the treatment group to reach an arbitrary tumor volume of 1000 mm^3 relative to the vehicle control group. […] A power analysis was conducted using historical data to determine the number of animals required to yield significance of 0.05 at a 30% difference. […] Data from experiments in vivo were analyzed using the student’s t-test for TGI values and the Mann–Whitney U test for TGD using Excel and GraphPad Prism. Fisher’s exact test was used to probe significance of differences in response frequency.

[1] = 25 mg/kg Q7Dx2 IV, Day 53, SCID-beige female mice
[2] = 25 mg/kg Q7Dx2 IV, Day 60, SCID-beige female mice
[3] = 25 mg/kg Q7Dx2 IV, SCID-beige female mice, Day 21
[4] = 25 mg/kg Q7Dx2 IV, SCID-beige female mice, Day 24
[5] = 25 mg/kg Q7Dx2 IV, SCID-beige female mice, Day 26
[6] = 25 mg/kg Q7Dx2 IV, SCID-beige female mice, Day 28
[7] = 25 mg/kg Q7Dx2 IV, SCID-beige female mice, Day 34, surviving animals
[8] = 25 mg/kg Q7Dx2 IV, SCID-beige female mice, Day 43
[9] = 25 mg/kg Q7Dx2 IV, SCID-beige female mice, Day 50
[10] = 25 mg/kg Q7Dx2 IV, SCID-beige female mice, Day 55, remaining animals
[11] = 25 mg/kg Q7Dx2 IV, SCID-beige female mice, Day 62
[12] = 25 mg/kg Q7Dx2 IV, SCID-beige female mice, Day 64
[13] = 25 mg/kg Q7Dx2 IV, SCID-beige female mice, Day 68
[14] = 25 mg/kg Q7Dx2 IV, SCID-beige female mice, Day 68, surviving animals
[15] = 25 mg/kg Q7Dx2 IV, SCID-beige mice, Day 13 (measure date 10/25/2017, dosing begin 10/26/2017)

Cc1c(Cl)c2c(Cl)c(C)c1-c1c(-c3ccc(F)cc3)sc3ncnc(c13)O[C@@H](C(=O)O)Cc1cc(ccc1OCc1ccnc(-c3ccc(OC[C@H]4COCCO4)cc3)n1)OC[C@@H](CN1CCN(C)CC1)O2 [Compound A-1747745.0]
Xenograft AMO-1 (DSMZ) (mm³) Day 34 Mean (6.25 mg/kg QDx1 IV, Day 34, group mean): 1592.98 mm³ | Xenograft AMO-1 (DSMZ) (mm³) Day 34 Median (6.25 mg/kg QDx1 IV, Day 34, group median): 1465.20 mm³ | Mortality Observation Day 34 (6.25 mg/kg QDx1 IV, Day 34, per animal): EUTV | Xenograft AMO-1 (DSMZ) (mm³) Day 36 (individual animals) (6.25 mg/kg QDx1 IV, Day 36, SCID-beige female mice, tumor volume per animal (remaining animals)): 1617 mm³ and 1642 mm³ and 1750 mm³ and 2010 mm³ | Xenograft AMO-1 (DSMZ) (mm³) Day 36, Mean (6.25 mg/kg QDx1 IV, Day 36, group mean of remaining animals): 1754.60 mm³ | Xenograft AMO-1 (DSMZ) (mm³) Day 36, Median (6.25 mg/kg QDx1 IV, Day 36, group median of remaining animals): 1695.89 mm³ | Mortality Observation Day 36 (6.25 mg/kg QDx1 IV, Day 36, per animal): EUTV | Mortality Observation Day 19 (25 mg/kg Q7Dx2 IV, AMO-1 xenograft, SCID-beige female mice, individual animals): MORB | % T/C (mean) (25 mg/kg Q7Dx2 IV, Day 13): 102.38% | % T/C (median) (25 mg/kg Q7Dx2 IV, Day 13): 100.76% | % T/C (mean) (25 mg/kg Q7Dx2 IV, Day 19): 6.47% | % T/C (median) (25 mg/kg Q7Dx2 IV, Day 19): 6.98% | % T/C (mean) (25 mg/kg Q7Dx2 IV, Day 21): 4.61% | % T/C (median) (25 mg/kg Q7Dx2 IV, Day 21): 4.91% | % T/C (mean) (25 mg/kg Q7Dx2 IV, Day 24): 1.88% | % T/C (median) (25 mg/kg Q7Dx2 IV, Day 24): 1.98% | % T/C (mean) (25 mg/kg Q7Dx2 IV, Day 26): 1.29% | % T/C (median) (25 mg/kg Q7Dx2 IV, Day 26): 1.46% | % T/C (mean) (25 mg/kg Q7Dx2 IV, Day 28): 0.52% | % T/C (median) (25 mg/kg Q7Dx2 IV, Day 28): 0.52% | Xenograft AMO-1 (DSMZ) (mm³) Day 53 (individual animals) [1]: 15 mm³ | Xenograft AMO-1 (DSMZ) (mm³) Day 53 Mean [1]: 15.19 mm³ | Xenograft AMO-1 (DSMZ) (mm³) Day 53 Median [1]: 15.19 mm³ | Xenograft AMO-1 (DSMZ) (mm³) Day 60 (individual animals) [2]: 155 mm³ and 71 mm³ | Xenograft AMO-1 (DSMZ) (mm³) Day 60, Mean [2]: 112.89 mm³ | Xenograft AMO-1 (DSMZ) (mm³) Day 60, Median [2]: 112.89 mm³ | Xenograft AMO-1 (DSMZ) Day 19 Mean (25 mg/kg Q7Dx2 IV, SCID-beige female mice, Day 19, group mean tumor volume): 25.56 mm³ | Xenograft AMO-1 (DSMZ) Day 19 Median (25 mg/kg Q7Dx2 IV, SCID-beige female mice, Day 19, group median tumor volume): 25.56 mm³ | Xenograft AMO-1 (DSMZ) (mm³) Day 19, individual animals (25 mg/kg Q7Dx2 IV, SCID-beige female mice, Day 19, individual tumor volumes): 18 mm³ and 33 mm³ and MORB | Mortality Observation Day 21, individual animals [3]: STOX (2×) and MORB (2×) | Xenograft AMO-1 (DSMZ) Day 21, Mean [3]: 29.76 mm³ | Xenograft AMO-1 (DSMZ) Day 21, Median [3]: 29.76 mm³ | Xenograft AMO-1 (DSMZ) tumor volume Day 21, individual animals [3]: 19 mm³ and 40 mm³ | Xenograft AMO-1 (DSMZ) (mm³) Day 24, individual animals [4]: 17 mm³ and 19 mm³ | Xenograft AMO-1 (DSMZ) tumor volume Day 24, Mean [4]: 17.90 mm³ | Xenograft AMO-1 (DSMZ) tumor volume Day 24, Median [4]: 17.90 mm³ | Xenograft AMO-1 (DSMZ) tumor volume Day 26, Mean [5]: 17.97 mm³ | Xenograft AMO-1 (DSMZ) tumor volume Day 26, Median [5]: 17.97 mm³ | Xenograft AMO-1 (DSMZ) tumor volume Day 26, individual animals [5]: 18 mm³ | Xenograft AMO-1 (DSMZ) (mm³) Day 28, individual animals [6]: 11 mm³ | Xenograft AMO-1 (DSMZ) Day 28 Mean [6]: 11.33 mm³ | Xenograft AMO-1 (DSMZ) Day 28 Median [6]: 11.33 mm³ | Xenograft AMO-1 (DSMZ) (mm³) Day 34, individual animal tumor volume (25 mg/kg Q7Dx2 IV, SCID-beige female mice, Day 34): 21 mm³ and 19 mm³ | Xenograft AMO-1 (DSMZ) (mm³) Day 34 Mean [7]: 20.16 mm³ | Xenograft AMO-1 (DSMZ) (mm³) Day 34 Median [7]: 20.16 mm³ | Xenograft AMO-1 (DSMZ) (mm³) Day 43, Mean [8]: 15.04 mm³ | Xenograft AMO-1 (DSMZ) (mm³) Day 43, Median [8]: 15.04 mm³ | Xenograft AMO-1 (DSMZ) (mm³) Day 43, individual animal tumor volume [8]: 15 mm³ | Xenograft AMO-1 (DSMZ) tumor volume Day 50, Mean [9]: 15.94 mm³ | Xenograft AMO-1 (DSMZ) tumor volume Day 50, Median [9]: 15.94 mm³ | Xenograft AMO-1 (DSMZ) tumor volume Day 50, individual animals [9]: 15 mm³ and 17 mm³ | Xenograft AMO-1 (DSMZ) tumor volume Day 55, individual animals (25 mg/kg Q7Dx2 IV, SCID-beige female mice, Day 55): 13 mm³ and 9 mm³ | Xenograft AMO-1 (DSMZ) tumor volume Day 55, Mean [10]: 10.76 mm³ | Xenograft AMO-1 (DSMZ) tumor volume Day 55, Median [10]: 10.76 mm³ | Xenograft AMO-1 (DSMZ) (mm³) Day 62 (individual animals) [11]: 198 mm³ and 12 mm³ | Xenograft AMO-1 (DSMZ) (mm³) Day 62, Mean [11]: 104.96 mm³ | Xenograft AMO-1 (DSMZ) (mm³) Day 62, Median [11]: 104.96 mm³ | Xenograft AMO-1 (DSMZ) (mm³) Day 64 (individual animals) [12]: 249 mm³ and 21 mm³ | Xenograft AMO-1 (DSMZ) (mm³) Day 64, Mean [12]: 134.75 mm³ | Xenograft AMO-1 (DSMZ) (mm³) Day 64, Median [12]: 134.75 mm³ | Mortality Observation Day 68, individual animal [13]: EUTV | Xenograft AMO-1 (DSMZ) (mm³) Day 68, individual animal tumor volume [13]: 1794 mm³ and 24 mm³ | Xenograft AMO-1 (DSMZ) (mm³) Day 68, Mean [14]: 908.91 mm³ | Xenograft AMO-1 (DSMZ) (mm³) Day 68, Median [14]: 908.91 mm³ | Xenograft AMO-1 (DSMZ) tumor volume Day 13, Mean [15]: 225.47 mm³ | Xenograft AMO-1 (DSMZ) tumor volume Day 13, Median [15]: 225.47 mm³ | Xenograft AMO-1 (DSMZ) tumor volume Day 13, individual animals [15]: 233 mm³ and 218 mm³ | Xenograft AMO-1 (DSMZ) (mm³) Day 40, Mean (25 mg/kg Q7Dx2 IV, SCID-beige mice, Day 40, group mean of remaining animals): 7.70 mm³ | Xenograft AMO-1 (DSMZ) (mm³) Day 40, Median (25 mg/kg Q7Dx2 IV, SCID-beige mice, Day 40, group median of remaining animals): 7.70 mm³ | Xenograft AMO-1 (DSMZ) (mm³) Day 40, individual animal (25 mg/kg Q7Dx2 IV, SCID-beige mice, Day 40, tumor volume of single animals): 8 mm³ | Xenograft AMO-1 (DSMZ) Day 57, Mean (25 mg/kg Q7Dx2 IV, SCID-beige mice, Day 57, group mean of remaining animals): 13.23 mm³ | Xenograft AMO-1 (DSMZ) Day 57, Median (25 mg/kg Q7Dx2 IV, SCID-beige mice, Day 57, group median of remaining animals): 13.23 mm³ | Xenograft AMO-1 (DSMZ) (mm³) Day 36, Mean (25 mg/kg Q7Dx2 IV, group mean of remaining animals, SCID-beige mice, Day 36): 10.51 mm³ | Xenograft AMO-1 (DSMZ) (mm³) Day 32 Mean (25 mg/kg Q7Dx2 IV, group mean tumor volume, Day 32): 48.75 mm³ | Xenograft AMO-1 (DSMZ) (mm³) Day 36, Median (25 mg/kg Q7Dx2 IV, group median of remaining animals, SCID-beige mice, Day 36): 10.51 mm³ | Xenograft AMO-1 (DSMZ) (mm³) Day 32 Median (25 mg/kg Q7Dx2 IV, group median tumor volume, Day 32): 48.75 mm³ | Xenograft AMO-1 (DSMZ) (mm³) Day 32 (25 mg/kg Q7Dx2 IV, individual animal tumor volume, Day 32): 94 mm³ and 4 mm³ | Xenograft AMO-1 (DSMZ) (mm³) Day 36 (25 mg/kg Q7Dx2 IV, individual animal tumor volume, SCID-beige mice, Day 36): 11 mm³
